Measured values as given in patent US7968097B2, “Identification of Hla-A2-presented T-cell epitopes derived from the oncofoetal antigen-immature laminin receptor protein and uses thereof” (Immatics Biotechnologies GmbH, priority 2005, dated 2011).
“Also recorded” adds a separate entry of the source.

Tested on: PBMC of HLA-A*02 positive healthy donors
Test: IFN-γ ELISPOT, healthy donors
Conditions: peripheral blood samples of healthy donors, IFN-γ ELISPOT
Procedure: To determine the frequency of OFA/iLR peptide-specific T cells in patients, ELISPOT-assays were performed using the Interferon-γ-ELISPOT-Kit (Becton Dickinson, Heidelberg, Germany) according to manufacturer's instructions.
Prior to analysis, T cells from patients and healthy donors had been kept in culture for seven days in the presence of Interleukin-2 (IL microgram/10^6 PBMC/milliliter).

Row | Sequence | CTL / spontaneous T cell responses against peptide in healthy individuals
1 | ALCNTDSPL (listed as Homo sapiens) [ILR2] | no spontaneous T cell responses; also recorded: low numbers of CTL
2 | LLAARAIVAI (listed as Homo sapiens) [ILR1] | no spontaneous T cell responses; also recorded: low numbers of CTL
